Results reported in patent publication US20200046641A1, “LIPOSOMES FOR THE TREATMENT OF OCULAR DISEASES” (TDC Technology Dedicated to Care srl, priority 2018, published 2020).

Test system: chorioallantoic membrane (CAM) of 10 days embryonated eggs
Experiment: Ocular irritation by HET CAM test
Parameters: species or system hen
Conditions: 0.3 ml applied on CAM; bleeding, vasoconstriction, clotting
Description: The in vitro test described in the present example has been carried out in order to evaluate if the ocular topical administration of the liposomes could cause irritation to the eye. To such purpose, the in vitro HET CAM test as described in […]-Recommended Test Method Protocol has been carried out: Hen's Egg Test-Chorioallantoic Membrane (HET-CAM) Test Method. The HET CAM test has been carried out by observing the irritation effects (bleeding, vasoconstriction and clotting) induced on the chorioallantoic membrane (CAM) of 10 days embryonated eggs by applying 0.3 ml of liposomes under test and calculating the ocular irritation index (“OII”) according to the formula described in Table 6. [table] The liposomes under examination in the present test are F1 and F2 liposomes. By means of the same method, the following controls have been also tested: SDS 1% (positive control with slow irritation), 0.1 N NaOH (positive control with fast irritation) and NaCl 0.9% (negative control). The embryonated eggs for this test have been obtained by the […]. farm, Tarragona, Spain. The eggs are kept at a temperature of 12±1° C. for at least 24 hours before placing them into the incubator at controlled temperature (37.8° C.) and humidity (50-60%) during the incubation days. The data have been analyzed as mean ±standard deviation at the moment when the injury occurred (n=3/group).

| Compound | Irritating effects (HET CAM) |
| --- | --- |
| [Na+].[OH-] [0.1 N NaOH, NaOH] | irritating effects |
| CCCCCCCCCCCCOS(=O)(=O)[O-].[Na+] [SDS 1%, SDS] | irritating effects |
